The nature of one data set: in vitro. As to conditions: African green monkey.
In data set [1] the test system is HSV-1 KOS mutant hrR3. Kind of data set: LacZ+ virus (hrR3) entry assay with pre-adsorbed virus (entry block). Format: cell-based. The procedure: LacZ^+ virus (hrR3) entry assay: Confluent Vero cell cultures in 96-well microtiter plates were switched to Hepes-buffered serum-free DMEM, cooled on ice to 4° C. for 30 min, and infected with hrR3 for 1 hour at 4° C. in 40 μL of medium. Unattached virus was removed by rinsing with ice-cold medium. Treatments with antiviral peptide SEQ ID NO:1, referred to as EB, or a control peptide which comprised the RRKK tetra-peptide (SEQ ID NO:16) attached to a scrambled version of the membrane transiting peptide RRKKLAALPLVLAAPLAVLA (SEQ ID NO:17) (referred to as EBX), or mock-treatments with peptide-free medium were carried out in serum-free DMEM as indicated. Virus entry was initiated by transferring cultures to 37° C. To inactivate any remaining extracellular virus, cultures were rinsed with PBS and exposed to low pH citrate buffer (40 mM citric acid, 10 mM KCl, 135 mM NaCl, pH 3.0, according to Highlander et al., J. Virol. 61:3356 (1987), for 1 min at 23° C. The citrate was rinsed off with PBS and cultures were maintained in serum-supplemented DMEM until they were fixed with 0.5% gluteraldehyde in 5×PBS for 30 min at 23° C., stained for β-galactosidase activity for 1 hour or overnight at 23° C. with X-gal (Fisher Biotech; BP1615-1) in 1×PBS containing […], 1.3 mM K4Fe(CN)6, and 1.3 mM K3Fe(CN)6, and scored for the presence of blue […] cells.
In these studies, the hrR3 virus was pre-adsorbed to cells for 1 hour at 4° C. before ice cold 25 μM EB or EBX were added in serum-free DMEM. After an additional 1 hour at 4° C., cultures were shifted to 37° C. to initiate virus entry. At 15 min intervals following the temperature shift, any virus remaining outside the cells was inactivated by washing the cultures with low pH citrate buffer. Cultures were then rinsed and returned to peptide-free serum-supplemented DMEM until they were fixed and stained for β-galactosidase 8 hours after the temperature shift.
(§1) Two assays were used to assess the ability of the TAT peptides to inhibit infection of Vero cells with the hrR3 virus. In both assays, the virus was preadsorbed to cells at 4° C. and entry was initiated in the presence of peptide by shifting the cultures to a permissive temperature (30-37° C.). One hour later, the peptide was rinsed off. The entry blocking activity was measured in half of the cultures, in which any extracellular virus remaining after the peptide treatment was inactivated with low pH citrate buffer. The rest of the cultures were exposed to PBS instead of citrate buffer and used to measure virus inactivation. Virus inactivation depended on persistent effects of the peptide lasting for a period of eight hours. At the end of that period, all cultures were fixed and infected cells were detected by staining with X-gal.
(§2) Virus (m.o.i.=0.025) was preadsorbed to Vero cells for 1 h at 4° C. before cultures were exposed to TAT-C (FIG. 15A), bTAT-9X (FIG. 15B), or n50,51TAT-C (FIGS. 15C, 15D) for 1 h at 33 (FIGS. 15A, 15B), 31 (FIG. 15C), or 37° C. (FIG. 15D). […] Inhibition of entry was measured in the citrate-treated cultures, in which any remaining external virus was inactivated immediately following exposure to peptide (●). Persistent virus inactivation lasting, at least in part, for the 8 h period following exposure to peptide, was measured in the PBS-treated cultures (◯). The IC50s measured in these experiments are included in Table 5.

Data set [2] deals with HSV-1 KOS mutant hrR3. Kind of data set: Inactivation of pre-adsorbed virus (virus inactivation). It counts as cell-based. As to conditions: 33° C.; read-out: Virus Inactivation IC50 (pre-adsorbed virus). The procedure: as §1, §2
For data set [3], the system named is HSV-1 KOS mutant hrR3. As to conditions: read-out: post-entry effects IC50; peptide added after citrate treatment, 8 h.
Data set [4] concerns Vero, HeLa, CV-1PD, TM-1, DP-9, CEMx174, NIKS, W12E cells. Kind of data set: MTS assay, eight cell lines. As to conditions: eight cell lines. In general terms: Tetrazolium dyes change colour on reduction, which living cells bring about.
The subject of another data set is hrR3. The experiment in a line: Virucidal assay. Format: cell-based, HSV-1. The procedure:
[…] The treated virus was diluted 200-fold with serum-supplemented DMEM and assayed for infectivity approximately 1 hour later in microtiter wells seeded with Vero cells (3.5×10^4 cells/well) 1 d earlier. Forty or 100 microliter volumes of diluted virus were adsorbed for 1 or 2 h at 37° C. and lacZ^+ cells were scored 8 hours later. In some experiments, aliquots of diluted virus were first dialyzed (Spectra/Por; MWCO 12-14,000) overnight at 4° C. against a 60-fold excess volume of Hepes-buffered serum-supplemented DMEM or forced by syringe through 0.22 μm membranes (Millex-GV; Millipore) before the remaining infectious virus was assayed.

[5] abbreviates: 33° C., read-out: Entry Block IC50.

Like-named read-outs stand apart in the source and are kept apart here. Peptide text beside a SMILES is read from it. * marks the point of attachment. code b = biotin-ε-aminohexanoyl, O=C(CCCC[C@@H]1SC[C@@H]2NC(=O)N[C@@H]21)NCCCCCC(=O)*; Biotin = O=C1N[C@H]2[C@H](CS[C@H]2CCCCC(=O)*)N1; Ahx = NCCCCCC(=O)O

`CC(C)C[C@H](NC(=O)[C@@H](NC(=O)[C@H](C)NC(=O)[C@H](CC(C)C)NC(=O)[C@@H]1CCCN1C(=O)[C@H](C)NC(=O)[C@H](C)NC(=O)[C@H](CC(C)C)NC(=O)[C@@H](NC(=O)[C@H](CC(C)C)NC(=O)[C@@H]1CCCN1C(=O)[C@H](CC(C)C)NC(=O)[C@H](C)NC(=O)[C@H](C)NC(=O)[C@H](CC(C)C)NC(=O)[C@@H]1CCCN1C(=O)[C@H](CCCNC(=N)N)NC(=O)[C@H](CCCNC(=N)N)NC(=O)[C@H](CCCNC(=N)N)NC(=O)[C@H](CCC(N)=O)NC(=O)[C@H](CCCNC(=N)N)NC(=O)[C@H](CCCNC(=N)N)NC(=O)[C@H](CCCCN)NC(=O)[C@H](CCCCN)NC(=O)[C@H](CCCNC(=N)N)NC(=O)CN)C(C)C)C(C)C)C(=O)N[C@@H](C)C(=O)O` [TAT-17] (H-GRKKRRQRRRPLAALPLVLAAPLAVLA-OH): the IC50 was ~200 µM in the data set “in vitro”, 2.4 µM with HSV-1 KOS mutant hrR3 [1] (setting [5]) and 8.3 µM with HSV-1 KOS mutant hrR3 [2].
Take `CC(C)C[C@H](NC(=O)CCCCCNC(=O)CCCC[C@@H]1SC[C@@H]2NC(=O)N[C@@H]21)C(=O)N[C@@H](C)C(=O)N[C@H](C(=O)N[C@@H](CC(C)C)C(=O)N[C@@H](C)C(=O)N1CCC[C@H]1C(=O)NCC(=O)N[C@@H](CCCNC(=N)N)C(=O)N[C@@H](CCCCN)C(=O)N[C@@H](CCCCN)C(=O)N[C@@H](CCCNC(=N)N)C(=O)N[C@@H](CCCNC(=N)N)C(=O)N[C@@H](CCC(N)=O)C(=O)N[C@@H](CCCNC(=N)N)C(=O)N[C@@H](CCCNC(=N)N)C(=O)N[C@@H](CCCNC(=N)N)C(=O)N[C@@H](CS)C(N)=O)C(C)C` [b6TAT-C, b-LAVLAPGRKKRRQRRRC-amide] ({Biotin-Ahx}-LAVLAPGRKKRRQRRRC-NH2): the figures for the IC50 with HSV-1 KOS mutant hrR3 [3], in the data set with HSV-1 KOS mutant hrR3 [1] (setting [5]) and with HSV-1 KOS mutant hrR3 [2] were 190 µM, 5.3 µM and 25 µM, respectively.
`CC(C)C[C@H](NC(=O)CCCCCNC(=O)CCCC[C@@H]1SC[C@@H]2NC(=O)N[C@@H]21)C(=O)N[C@@H](C)C(=O)N[C@@H](C)C(=O)N[C@@H](CC(C)C)C(=O)N1CCC[C@H]1C(=O)N[C@@H](CC(C)C)C(=O)N[C@H](C(=O)N[C@@H](CC(C)C)C(=O)N[C@@H](C)C(=O)N[C@@H](C)C(=O)N1CCC[C@H]1C(=O)N[C@@H](CC(C)C)C(=O)N[C@@H](C)C(=O)N[C@H](C(=O)N[C@@H](CC(C)C)C(=O)N[C@@H](C)C(=O)N1CCC[C@H]1C(=O)NCC(=O)N[C@@H](CCCNC(=N)N)C(=O)N[C@@H](CCCCN)C(=O)N[C@@H](CCCCN)C(=O)N[C@@H](CCCNC(=N)N)C(=O)N[C@@H](CCCNC(=N)N)C(=O)N[C@@H](CCC(N)=O)C(=O)N[C@@H](CCCNC(=N)N)C(=O)N[C@@H](CCCNC(=N)N)C(=O)N[C@@H](CCCNC(=N)N)C(=O)N[C@@H](CS)C(N)=O)C(C)C)C(C)C` [b17TAT-C] ({Biotin-Ahx}-LAALPLVLAAPLAVLAPGRKKRRQRRRC-NH2): the IC50 in “in vitro” was ~200 µM; in the data set on HSV-1 KOS mutant hrR3 [1] (setting [5]), 5.4 µM; in the data set on HSV-1 KOS mutant hrR3 [2] it was 9.4 µM.
`CC(C)C[C@H](NC(=O)[C@H](C)NC(=O)[C@H](CC(C)C)NC(=O)[C@H](CC(C)C)NC(=O)[C@@H](NC(=O)[C@H](C)NC(=O)[C@@H]1CCCN1C(=O)[C@H](CC(C)C)NC(=O)[C@H](CC(C)C)NC(=O)[C@H](C)NC(=O)[C@@H](NC(=O)[C@H](C)NC(=O)[C@H](C)NC(=O)[C@H](CCCCN)NC(=O)[C@H](CCCCN)NC(=O)[C@H](CCCNC(=N)N)NC(=O)[C@H](CCCNC(=N)N)NC(=O)CCCCCNC(=O)CCCC[C@@H]1SC[C@@H]2NC(=O)N[C@@H]21)C(C)C)C(C)C)C(=O)N[C@@H](CC(C)C)C(=O)N[C@@H](C)C(=O)N1CCC[C@H]1C(=O)O` [bEB] ({Biotin-Ahx}-RRKKAAVALLPAVLLALLAP-OH) returned an IC50 in “in vitro” of 100 µM.
Consider `CC[C@H](C)[C@H](NC(=O)[C@H](CCCCN)NC(=O)[C@@H](NC(=O)[C@H](CCC(N)=O)NC(=O)[C@H](CCCNC(=N)N)NC(=O)CCCCCNC(=O)CCCC[C@@H]1SC[C@@H]2NC(=O)N[C@@H]21)[C@@H](C)CC)C(=O)N[C@@H](Cc1ccccc1)C(=O)N[C@@H](Cc1ccccc1)C(=O)N1CCC[C@H]1C(=O)N[C@@H](CC(N)=O)C(=O)N[C@@H](CCCNC(=N)N)C(=O)N[C@@H](CCCNC(=N)N)C(=O)N[C@@H](CCSC)C(=O)N[C@@H](CCCCN)C(=O)N[C@@H](Cc1ccccc1)C(=O)N[C@@H](CCCCN)C(=O)N[C@@H](CCCCN)C(N)=O` [bHOMFF, b - RQIKI F FPNRRMK F KK-amide] ({Biotin-Ahx}-RQIKIFFPNRRMKFKK-NH2), for which the IC50 in “in vitro” was > 100 µM. In addition, the “cytotoxicity to cells (MTS), overall” value in data set [4] is reported as “generally not cytotoxic”.
On to `CC(C)C[C@H](NC(=O)[C@@H](NC(=O)[C@H](C)NC(=O)[C@H](CC(C)C)NC(=O)[C@@H]1CCCN1C(=O)[C@H](C)NC(=O)[C@H](C)NC(=O)[C@H](CC(C)C)NC(=O)[C@@H](NC(=O)[C@H](CC(C)C)NC(=O)[C@@H]1CCCN1C(=O)[C@H](CC(C)C)NC(=O)[C@H](C)NC(=O)[C@H](C)NC(=O)[C@H](CC(C)C)NC(=O)[C@@H]1CCCN1C(=O)[C@H](CCCNC(=N)N)NC(=O)[C@H](CCCNC(=N)N)NC(=O)[C@H](CCCNC(=N)N)NC(=O)[C@H](CCC(N)=O)NC(=O)[C@H](CCCNC(=N)N)NC(=O)[C@H](CCCNC(=N)N)NC(=O)[C@H](CCCCN)NC(=O)[C@H](CCCCN)NC(=O)[C@H](CCCNC(=N)N)NC(=O)CNC(=O)[C@H](Cc1ccc(O)cc1)NC(=O)CCCCCNC(=O)CCCC[C@@H]1SC[C@@H]2NC(=O)N[C@@H]21)C(C)C)C(C)C)C(=O)N[C@@H](C)C(=O)O` [bTAT-17] ({Biotin-Ahx}-YGRKKRRQRRRPLAALPLVLAAPLAVLA-OH), for which the values for the IC50 in the data set “in vitro”, in the data set on HSV-1 KOS mutant hrR3 [1] (setting [5]) and in the data set with HSV-1 KOS mutant hrR3 [2] were ~200 µM, 2.4 µM and 6.6 µM, respectively.
Regarding `N=C(N)NCCC[C@H](NC(=O)CNC(=O)CCCCCNC(=O)CCCC[C@@H]1SC[C@@H]2NC(=O)N[C@@H]21)C(=O)N[C@@H](CCCCN)C(=O)N[C@@H](CCCCN)C(=O)N[C@@H](CCCNC(=N)N)C(=O)N[C@@H](CCCNC(=N)N)C(=O)N[C@@H](CCC(N)=O)C(=O)N[C@@H](CCCNC(=N)N)C(=O)N[C@@H](CCCNC(=N)N)C(=O)N[C@@H](CCCNC(=N)N)C(=O)N[C@@H](CS)C(N)=O` [bTAT-C, b-GRKKRRQRRRC-amide], the IC50 with HSV-1 KOS mutant hrR3 [3] is 175 µM; in the data set with HSV-1 KOS mutant hrR3 [1] (setting [5]), 5.8 µM; in the data set with HSV-1 KOS mutant hrR3 [2], 27 µM.
On to “b - KLALKLALKALKAALKLA-amide ({code b}-KLALKLALKALKAALKLA-NH2; SMILES CC(C)C[C@H](NC(=O)[C@H](C)NC(=O)[C@H](CCCCN)NC(=O)[C@H](CC(C)C)NC(=O)[C@H](C)NC(=O)[C@H](CC(C)C)NC(=O)[C@H](CCCCN)NC(=O)[C@H](CC(C)C)NC(=O)[C@H](C)NC(=O)[C@H](CC(C)C)NC(=O)[C@H](CCCCN)NC(=O)CCCCCNC(=O)CCCC[C@@H]1SC[C@@H]2NC(=O)N[C@@H]21)C(=O)N[C@@H](CCCCN)C(=O)N[C@@H](C)C(=O)N[C@@H](C)C(=O)N[C@@H](CC(C)C)C(=O)N[C@@H](CCCCN)C(=O)N[C@@H](CC(C)C)C(=O)N[C@@H](C)C(N)=O) [bKLAd11,12]”, for which the IC50 with hrR3 (4° C., read-out: Virucidal Activity 4° C. IC50) is 300 µM; with hrR3 (37° C., read-out: Virucidal Activity 37° C. IC50), 61 µM; in the data set with HSV-1 KOS mutant hrR3 [1] (read-out: Entry Blocking Activity IC50) it was 23 µM.

As a reminder, the IC50 is the concentration that gives 50% inhibition.

These data come from patent US7432045B2 (priority 2003, dated 2008).
